Among the data in PubChem BioAssay (NCI) are GI50 and TGI values, retold here.

Molecules are shown by their SMILES. Several values for one entry are separate records, joined by “and”; a condition that tells them apart may be missing. Equal values may be shown once.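 1) Cells in 96-well plates. 2) Compound, 48 h, 5 concentrations. 3) Linear interpolation between surrounding doses. 4) Unreached endpoint = highest concentration. Abbreviation: GI50, concentration required for 50% inhibition of growth. TGI denotes the concentration required for complete inhibition of growth.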

Test systems include 786-0 renal; EKVX NSCLC; HCC-2998 colon; IGROV1 ovarian; OVCAR-5 ovarian; SF-268 CNS; SF-539 CNS; SK-MEL-28 melanoma; SK-MEL-5 melanoma; SR leukemia.
Holding throughout (test): NCI anticancer screen, dose series, 48 h

`CC[C@H](C)[C@H](NC(=O)[C@H]1CCCCN1C)C(=O)N(C)[C@H](C[C@@H](OC(C)=O)c1cccc(C(=O)N[C@@H](Cc2ccccc2)C[C@H](C)C(=O)O)n1)C(C)C`: the GI50 is 0.00555 µM and 0.0025 µM in the experiment with 786-0 renal; 0.00493 µM and 0.0025 µM in the experiment on EKVX NSCLC; 0.00551 µM and 0.0025 µM with HCC-2998 colon; 0.0038 µM and 0.0025 µM in the experiment with IGROV1 ovarian; 0.00435 µM and 0.0025 µM in the experiment on SF-268 CNS; 0.00148 µM and < 0.0025 µM with SF-539 CNS. The GI50 with SK-MEL-5 melanoma is 0.000482 µM and 0.0025 µM; with SR leukemia, 0.000529 µM and 0.0025 µM. For the same molecule, the TGI with 786-0 renal, in the experiment on EKVX NSCLC, in the experiment with HCC-2998 colon, with IGROV1 ovarian, in the experiment on OVCAR-5 ovarian and in the experiment on SF-268 CNS was more than 25 µM in each case. In addition, the TGI in the experiment on SF-539 CNS is 0.00742 µM and < 0.0025 µM; in the experiment on SK-MEL-28 melanoma it was more than 25 µM; in the experiment with SK-MEL-5 melanoma, 0.0193 µM and 0.00279 µM; in the experiment with SR leukemia, more than 25 µM.

In the case of `Cc1ccc(Cl)c(NS(=O)(=O)c2ccc(-c3cnc(C4CC4)o3)cc2)c1`, the GI50 in the experiment on 786-0 renal is 0.0772 µM; with EKVX NSCLC, 0.314 µM; in the experiment on HCC-2998 colon, 0.233 µM; with IGROV1 ovarian, 0.129 µM; with OVCAR-5 ovarian, 0.439 µM; in the experiment with SF-268 CNS, 3.33 µM. Also, the GI50 in the experiment with SF-539 CNS is 0.0803 µM; in the experiment on SK-MEL-28 melanoma it was 2.77 µM; in the experiment on SK-MEL-5 melanoma it was 0.399 µM; in the experiment on SR leukemia it was 0.0549 µM. In addition, the TGI is more than 100 µM with 786-0 renal; more than 100 µM in the experiment with EKVX NSCLC; 14.6 µM in the experiment on HCC-2998 colon; more than 100 µM with IGROV1 ovarian; more than 100 µM in the experiment with OVCAR-5 ovarian; more than 66.3 µM in the experiment with SF-268 CNS. The TGI is 1.54 µM in the experiment with SF-539 CNS, more than 58.5 µM with SK-MEL-28 melanoma, 3.72 µM in the experiment with SK-MEL-5 melanoma and more than 63.3 µM in the experiment on SR leukemia.

In the case of `Nc1ncc(-c2ccc3ncnc(N4CCc5ccc(Cl)cc54)c3c2)cc1C(F)(F)F`, the GI50 in the experiment with 786-0 renal is 1.6 µM; with EKVX NSCLC, 0.507 µM; in the experiment with HCC-2998 colon it was 3.43 µM; in the experiment with IGROV1 ovarian, 0.188 µM; with OVCAR-5 ovarian it was 0.916 µM; in the experiment on SF-268 CNS, 1.13 µM. In addition, the GI50 with SF-539 CNS was 1.61 µM; in the experiment on SK-MEL-28 melanoma, 2.01 µM; with SK-MEL-5 melanoma, 5.08 µM; with SR leukemia, 2.55 µM. Moreover, the TGI was 12 µM with 786-0 renal; 18.7 µM in the experiment on EKVX NSCLC; more than 100 µM in the experiment with HCC-2998 colon; 0.964 µM in the experiment with IGROV1 ovarian; 14.4 µM with OVCAR-5 ovarian; 24.7 µM with SF-268 CNS. In addition, the TGI in the experiment with SF-539 CNS was 10.4 µM; in the experiment with SK-MEL-28 melanoma, 13.9 µM; in the experiment on SK-MEL-5 melanoma it was 28.8 µM; in the experiment with SR leukemia, more than 100 µM.

For the molecule `CC(=O)Nc1cc2cc(NS(=O)(=O)c3ccc(Cl)c(Cl)c3)ccc2oc1=O`, the TGI is 32.4 µM with 786-0 renal; more than 100 µM in the experiment on EKVX NSCLC; more than 100 µM with HCC-2998 colon; more than 100 µM in the experiment with IGROV1 ovarian; more than 100 µM in the experiment on OVCAR-5 ovarian; 61.7 µM in the experiment with SF-268 CNS. For the same molecule, the TGI is 56.1 µM in the experiment on SF-539 CNS, more than 100 µM in the experiment with SK-MEL-28 melanoma, 58.6 µM in the experiment on SK-MEL-5 melanoma and more than 100 µM with SR leukemia.

For `CCOc1ccc(C(C[N+](=O)[O-])Sc2ccccc2N)cc1` (stereo not drawn), the GI50 in the experiment with 786-0 renal was 5.11 µM; in the experiment on EKVX NSCLC it was 14.8 µM; with HCC-2998 colon it was 1.77 µM; in the experiment with IGROV1 ovarian, 3.33 µM; with OVCAR-5 ovarian, 11.2 µM; in the experiment on SF-268 CNS, 4.76 µM. Besides, the GI50 with SF-539 CNS is 1.89 µM; in the experiment on SK-MEL-28 melanoma it was 4.03 µM; in the experiment on SK-MEL-5 melanoma, 6.34 µM; in the experiment on SR leukemia, 2.3 µM. The TGI in the experiment on 786-0 renal came out at 17.1 µM; with EKVX NSCLC it was 30 µM; in the experiment on HCC-2998 colon it was 3.25 µM; in the experiment with IGROV1 ovarian, 13.2 µM; with OVCAR-5 ovarian, 23.2 µM; with SF-268 CNS, 18.3 µM. In addition, the TGI in the experiment with SF-539 CNS turned out to be 3.94 µM; in the experiment on SK-MEL-28 melanoma it was 14.8 µM; in the experiment with SK-MEL-5 melanoma, 19.4 µM; in the experiment on SR leukemia, 5.17 µM.

Take `CN(C)Cc1ccc(NC(=O)c2cncc(C#Cc3cnc(N)c4ncccc34)c2)cc1F`: the GI50 was 1.86 µM in the experiment with 786-0 renal; 2 µM in the experiment on EKVX NSCLC; 9.83 µM with HCC-2998 colon; 2.13 µM in the experiment on IGROV1 ovarian; 2.08 µM with OVCAR-5 ovarian; 2.25 µM in the experiment on SF-268 CNS. For the same molecule, the GI50 with SF-539 CNS was 1.53 µM; with SK-MEL-28 melanoma it was 1.85 µM; in the experiment on SK-MEL-5 melanoma it was 1.7 µM; with SR leukemia, 1.93 µM. The TGI in the experiment on 786-0 renal turned out to be 3.6 µM; in the experiment on EKVX NSCLC it was 4.01 µM; in the experiment with HCC-2998 colon, 29.3 µM; in the experiment with IGROV1 ovarian, 3.96 µM; in the experiment with OVCAR-5 ovarian it was 3.92 µM; in the experiment on SF-268 CNS, 4.24 µM. The TGI in the experiment on SF-539 CNS is 3.07 µM; with SK-MEL-28 melanoma, 3.46 µM; in the experiment with SK-MEL-5 melanoma, 3.29 µM; with SR leukemia, 5.93 µM.

`O=C1Nc2ccccc2/C1=C\c1nc(-c2ccccc2F)n2ccccc12`: the GI50 in the experiment on 786-0 renal was 3.44 µM; with EKVX NSCLC, 10.6 µM; in the experiment with HCC-2998 colon, 55.2 µM; with IGROV1 ovarian, 2.04 µM; in the experiment on OVCAR-5 ovarian it was 18 µM; with SF-268 CNS, 4.65 µM. In addition, the GI50 in the experiment on SF-539 CNS is 3.1 µM; in the experiment on SK-MEL-28 melanoma, 3.71 µM; with SK-MEL-5 melanoma, 2.8 µM; in the experiment with SR leukemia, 11 µM. Further, the TGI was 10.1 µM in the experiment on 786-0 renal; 28.3 µM with EKVX NSCLC; more than 100 µM with HCC-2998 colon; 12.5 µM in the experiment with IGROV1 ovarian; 53.5 µM in the experiment with OVCAR-5 ovarian; 18.7 µM in the experiment on SF-268 CNS. The TGI in the experiment on SF-539 CNS turned out to be 11.1 µM; in the experiment on SK-MEL-28 melanoma, 14.6 µM; in the experiment with SK-MEL-5 melanoma, 11.4 µM; in the experiment on SR leukemia it was 29.4 µM.
